Test results: patent publication US20230233569A1 (Revolution Medicines, Inc., priority 2020, published 2023)
Where two headings read alike, the source gives them in different places.

What was measured:
Experiment in all cases: Ras-Raf disruption / FRET / MOA assay (BRAF RBD)
Format in all cases: biochemical
KRAS G12D = KRAS G12D (Homo sapiens, UniProt P01116+P62937, G12D); details: with Cyclophilin A
Method in brief: (§1)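 TR-FRET in 25 mM HEPES pH 7.3, 100 mM NaCl, 5 mM MgCl2, 0.1% BSA, 0.002% Tween20 with 25 μM Cyclophilin A, 12.5 nM His6-Ras-GMPPNP, 50 nM GST-BRAF RBD; compound 10-point 3-fold series from 30 μM. After 3 h at 25 °C, Eu anti-His/APC anti-GST added for 1.5 h; IC50 from ratio decrease versus DMSO.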

KRAS G12S = KRAS G12S (Homo sapiens, UniProt P01116+P62937, G12S); details: with Cyclophilin A
Chain of KRAS G12S (P01116 1-169 isoform P01116-2 G12S limits assumed): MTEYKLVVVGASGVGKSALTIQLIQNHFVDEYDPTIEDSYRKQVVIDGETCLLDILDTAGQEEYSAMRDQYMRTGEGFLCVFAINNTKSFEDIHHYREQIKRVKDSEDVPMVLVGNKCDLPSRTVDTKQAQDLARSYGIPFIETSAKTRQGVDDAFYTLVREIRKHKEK
Chain of KRAS G12S (P62937 whole entry): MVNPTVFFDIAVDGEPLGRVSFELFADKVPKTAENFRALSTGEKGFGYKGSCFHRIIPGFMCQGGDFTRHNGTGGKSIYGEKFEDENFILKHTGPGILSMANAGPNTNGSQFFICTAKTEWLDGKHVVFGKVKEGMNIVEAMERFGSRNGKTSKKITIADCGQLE
Method in brief: as §1

KRAS G12V = KRAS G12V (Homo sapiens, UniProt P01116+P62937, G12V); details: with Cyclophilin A
Chain of KRAS G12V (P01116 1-169 isoform P01116-2 G12V limits assumed): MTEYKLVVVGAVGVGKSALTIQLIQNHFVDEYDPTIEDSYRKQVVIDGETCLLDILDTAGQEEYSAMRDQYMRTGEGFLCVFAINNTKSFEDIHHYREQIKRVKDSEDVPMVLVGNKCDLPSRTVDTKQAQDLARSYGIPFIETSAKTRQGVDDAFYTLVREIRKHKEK
Chain of KRAS G12V (P62937 whole entry): as the sequence (P62937 whole entry) above
Method in brief: as §1

KRAS G13C = KRAS G13C (Homo sapiens, UniProt P01116+P62937, G13C); details: with Cyclophilin A
Chain of KRAS G13C (P01116 1-169 isoform P01116-2 G13C limits assumed): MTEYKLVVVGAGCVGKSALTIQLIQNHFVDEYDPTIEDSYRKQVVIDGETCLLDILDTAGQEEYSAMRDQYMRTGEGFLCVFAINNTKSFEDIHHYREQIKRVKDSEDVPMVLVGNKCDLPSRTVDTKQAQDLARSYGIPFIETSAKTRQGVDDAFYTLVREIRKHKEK
Chain of KRAS G13C (P62937 whole entry): as the sequence (P62937 whole entry) above
Method in brief: as §1

KRAS G13D = KRAS G13D (Homo sapiens, UniProt P01116+P62937, G13D); details: with Cyclophilin A
Chain of KRAS G13D (P01116 1-169 isoform P01116-2 G13D limits assumed): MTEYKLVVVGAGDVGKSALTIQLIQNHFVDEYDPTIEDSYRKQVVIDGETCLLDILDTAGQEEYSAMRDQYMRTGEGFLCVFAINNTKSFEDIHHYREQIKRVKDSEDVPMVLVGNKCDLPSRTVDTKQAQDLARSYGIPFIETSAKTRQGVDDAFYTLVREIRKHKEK
Chain of KRAS G13D (P62937 whole entry): as the sequence (P62937 whole entry) above
Method in brief: as §1

KRAS Q61H = KRAS Q61H (Homo sapiens, UniProt P01116+P62937, Q61H)
Chain of KRAS Q61H (P01116 1-169 isoform P01116-2 Q61H limits assumed): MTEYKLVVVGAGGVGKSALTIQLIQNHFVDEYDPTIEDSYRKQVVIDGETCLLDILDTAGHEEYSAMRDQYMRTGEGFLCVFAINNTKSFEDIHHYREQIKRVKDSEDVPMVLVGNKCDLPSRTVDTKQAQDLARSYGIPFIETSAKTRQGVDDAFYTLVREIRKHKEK
Chain of KRAS Q61H (P62937 whole entry): as the sequence (P62937 whole entry) above
Method in brief: as §1

KRAS WT = KRAS WT (Homo sapiens, UniProt P01116+P62937); details: with Cyclophilin A
Chain of KRAS WT (P01116 1-169 isoform P01116-2 limits assumed): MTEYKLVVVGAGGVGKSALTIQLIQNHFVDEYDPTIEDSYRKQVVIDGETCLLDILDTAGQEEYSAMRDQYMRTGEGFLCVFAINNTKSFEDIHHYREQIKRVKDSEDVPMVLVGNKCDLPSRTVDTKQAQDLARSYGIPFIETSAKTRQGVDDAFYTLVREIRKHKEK
Chain of KRAS WT (P62937 whole entry): as the sequence (P62937 whole entry) above
Method in brief: as §1

NRAS G12C = NRAS G12C (Homo sapiens, UniProt P01111+P62937, G12C)
Chain of NRAS G12C (P01111 whole entry G12C): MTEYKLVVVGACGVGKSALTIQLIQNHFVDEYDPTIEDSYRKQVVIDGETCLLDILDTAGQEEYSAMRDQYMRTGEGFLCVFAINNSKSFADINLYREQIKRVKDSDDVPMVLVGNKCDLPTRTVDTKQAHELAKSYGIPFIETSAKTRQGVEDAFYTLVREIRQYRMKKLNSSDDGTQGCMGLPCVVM
Chain of NRAS G12C (P62937 whole entry): as the sequence (P62937 whole entry) above
Method in brief: as §1

NRAS Q61K = NRAS Q61K (Homo sapiens, UniProt P01111+P62937, Q61K)
Chain of NRAS Q61K (P01111 whole entry Q61K): as the sequence (P01111 whole entry G12C) above, with C12G, Q61K counted along it
Chain of NRAS Q61K (P62937 whole entry): as the sequence (P62937 whole entry) above
Method in brief: as §1

NRAS Q61R = NRAS Q61R (Homo sapiens, UniProt P01111+P62937, Q61R)
Chain of NRAS Q61R (P01111 whole entry Q61R): as the sequence (P01111 whole entry G12C) above, with C12G, Q61R counted along it
Chain of NRAS Q61R (P62937 whole entry): as the sequence (P62937 whole entry) above
Method in brief: as §1

NRAS WT = NRAS WT (Homo sapiens, UniProt P01111+P62937)
Chain of NRAS WT (P01111 whole entry): as the sequence (P01111 whole entry G12C) above, with C12G counted along it
Chain of NRAS WT (P62937 whole entry): as the sequence (P62937 whole entry) above
Method in brief: as §1

KRAS G12C = KRAS G12C (Homo sapiens, UniProt P01116+P62937, G12C); details: with Cyclophilin A
Chain of KRAS G12C (P01116 1-169 isoform P01116-2 G12C limits assumed): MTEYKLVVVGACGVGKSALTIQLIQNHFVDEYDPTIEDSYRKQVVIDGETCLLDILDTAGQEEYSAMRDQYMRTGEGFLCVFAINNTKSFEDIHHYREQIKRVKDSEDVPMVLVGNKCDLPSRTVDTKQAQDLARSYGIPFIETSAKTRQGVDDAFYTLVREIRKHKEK
Chain of KRAS G12C (P62937 whole entry): as the sequence (P62937 whole entry) above
Method in brief: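 His6-K-Ras G12C-GMPPNP (12.5 nM), GST-BRAF RBD (50 nM) and tagless Cyclophilin A (25 μM) incubated 3 h at 25 °C with compound (10-point 3-fold series from 30 μM), pH 7.3 HEPES buffer. Anti-His Eu/anti-GST APC added for 1.5 h; decreased TR-FRET ratio vs DMSO gives IC50.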

[1] = KRAS G12D FRET data IC50, Ras-Raf disruption
[2] = KRAS G12S FRET data IC50, Ras-Raf disruption
[3] = KRAS G12V FRET data IC50, Ras-Raf disruption
[4] = KRAS G13C FRET data IC50, Ras-Raf disruption
[5] = KRAS G13D FRET data IC50, Ras-Raf disruption
[6] = KRAS WT FRET data IC50, Ras-Raf disruption
[7] = NRAS G12C FRET data IC50, NRAS G12C
[8] = KRAS G12C FRET data IC50, Ras-Raf disruption
[9] = Ras-Raf disruption, read-out: KRAS G12D FRET data IC50
[10] = Ras-Raf disruption, read-out: KRAS G12S FRET data IC50
[11] = Ras-Raf disruption, read-out: KRAS G12V FRET data IC50
[12] = Ras-Raf disruption, read-out: KRAS G13C FRET data IC50
[13] = Ras-Raf disruption, read-out: KRAS G13D FRET data IC50
[14] = KRAS Q61H, read-out: KRAS Q61H FRET data IC50
[15] = Ras-Raf disruption, read-out: KRAS WT FRET data IC50
[16] = NRAS G12C, read-out: NRAS G12C FRET data IC50
[17] = NRAS Q61K, read-out: NRAS Q61K FRET data IC50
[18] = NRAS Q61R, read-out: NRAS Q61R FRET data IC50
[19] = NRAS WT, read-out: NRAS WT FRET data IC50
[20] = Ras-Raf disruption, read-out: KRAS G12C FRET data IC50

Chain of KRAS G12D (P01116 1-169 isoform P01116-2 G12D limits assumed): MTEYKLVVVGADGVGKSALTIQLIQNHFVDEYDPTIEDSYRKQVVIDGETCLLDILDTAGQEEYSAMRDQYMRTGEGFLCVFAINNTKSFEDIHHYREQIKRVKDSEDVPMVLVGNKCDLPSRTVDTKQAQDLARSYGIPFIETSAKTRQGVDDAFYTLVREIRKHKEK
Chain of KRAS G12D (P62937 whole entry): as the sequence (P62937 whole entry) above

SMILES | IC50 (KRAS G12D; [1]) [nM] | IC50 (KRAS G12S; [2]) [nM] | IC50 (KRAS G12V; [3]) [nM] | IC50 (KRAS G13C; [4]) [nM] | IC50 (KRAS G13D; [5]) [nM] | IC50 (KRAS Q61H) [nM] | IC50 (KRAS WT; [6]) [nM] | IC50 (NRAS G12C; [7]) [nM] | IC50 (NRAS Q61K) [nM] | IC50 (NRAS Q61R) [nM] | IC50 (NRAS WT) [nM] | IC50 (KRAS G12C; [8]) [nM] | IC50 (KRAS G12D; [9]) [nM] | IC50 (KRAS G12S; [10]) [nM] | IC50 (KRAS G12V; [11]) [nM] | IC50 (KRAS G13C; [12]) [nM] | IC50 (KRAS G13D; [13]) [nM] | IC50 (KRAS Q61H; [14]) [nM] | IC50 (KRAS WT; [15]) [nM] | IC50 (NRAS G12C; [16]) [nM] | other results
CCn1c(-c2cccnc2[C@H](C)OC)c2c3cc(ccc31)-c1cc(O)cc(c1)C[C@H](NC(=O)[C@H](C1CCCC1)N(C)C(=O)CN(C)C(=O)[C@@H]1N[C@@H]1C1(OC)CC1)C(=O)N1CCC[C@H](N1)C(=O)OCC(C)(C)C2 (single isomer, unassigned) [Example 323] | 100 to 1000 | 10 to 100 | 10 to 100 | 10 to 100 | 100 to 1000 | 10 to 100 | 10 to 100 | 10 to 100 | 100 to 1000 | 100 to 1000 | 10 to 100 | 10 to 100 |  |  |  |  |  |  |  |  | 
CCn1c(-c2cccnc2[C@H](C)OC)c2c3cc(ccc31)-c1cc(O)cc(c1)C[C@H](NC(=O)[C@H](C(C)C)N(C)C(=O)C13CC(CN1C(=O)[C@@H]1CN1)C3)C(=O)N1CCC[C@H](N1)C(=O)OCC(C)(C)C2 [Example 163] | 100 to 1000 | 100 to 1000 | 100 to 1000 | 100 to 1000 | 100 to 1000 | 10 to 100 | 100 to 1000 | 100 to 1000 | 100 to 1000 | 100 to 1000 | 100 to 1000 | 100 to 1000 |  |  |  |  |  |  |  |  | 
CCn1c(-c2cccnc2[C@H](C)OC)c2c3cc(ccc31)-c1cc(O)cc(c1)C[C@H](NC(=O)[C@H](C(C)C)N(C)C(=O)C13CC(CN1C(=O)[C@H]1CN1)C3)C(=O)N1CCC[C@H](N1)C(=O)OCC(C)(C)C2 [Example 164] | 100 to 1000 | 100 to 1000 | 100 to 1000 | 100 to 1000 | 100 to 1000 | 10 to 100 | 100 to 1000 | 100 to 1000 | 1000 to 10000 | 1000 to 10000 | 100 to 1000 | 100 to 1000 |  |  |  |  |  |  |  |  | 
CCn1c(-c2cccnc2[C@H](C)OC)c2c3cc(ccc31)-c1cc(O)cc(c1)C[C@H](NC(=O)[C@H](C(C)C)N(C)C(=O)[C@H]1CCCN(C(=O)[C@H]3CN3)C1)C(=O)N1CCC[C@H](N1)C(=O)OCC(C)(C)C2 [Example 165] |  |  |  |  |  |  |  |  |  |  |  |  | 100 to 1000 | 100 to 1000 | 10 to 100 | 100 to 1000 | 100 to 1000 | 100 to 1000 | 100 to 1000 | < 10 | IC50 (NRAS Q61K; [17]): 1000 to 10000 nM; IC50 (NRAS Q61R; [18]): 1000 to 10000 nM; IC50 (NRAS WT; [19]): 100 to 1000 nM; IC50 (KRAS G12C; [20]): < 10 nM
CCn1c(-c2cccnc2[C@H](C)OC)c2c3cc(ccc31)-c1cc(O)cc(c1)C[C@H](NC(=O)[C@H](C(C)C)N(C)C(=O)[C@H]1C[C@H](NC(=O)[C@@H]3CN3)C1)C(=O)N1CCC[C@H](N1)C(=O)OCC(C)(C)C2 [Example 167] |  |  |  |  |  |  |  |  |  |  |  |  | 10 to 100 | 10 to 100 | 10 to 100 | 10 to 100 | 10 to 100 | 10 to 100 | 10 to 100 | < 10 | IC50 (NRAS Q61K; [17]): 10 to 100 nM; IC50 (NRAS Q61R; [18]): 100 to 1000 nM; IC50 (NRAS WT; [19]): 10 to 100 nM; IC50 (KRAS G12C; [20]): < 10 nM
CCn1c(-c2cccnc2[C@H](C)OC)c2c3cc(ccc31)-c1cc(O)cc(c1)C[C@H](NC(=O)[C@H](C1CCCC1)N(C)C(=O)CN(C)C(=O)[C@@H]1N[C@@H]1C1CC1)C(=O)N1CCC[C@H](N1)C(=O)OCC(C)(C)C2 [Example 170] | 10 to 100 | 10 to 100 | 10 to 100 | 10 to 100 | 10 to 100 | 10 to 100 | 10 to 100 | 10 to 100 | 10 to 100 | 10 to 100 | 10 to 100 | 10 to 100 |  |  |  |  |  |  |  |  | 
